Columns and labels:
rat hind paw [1] = assay: Heat-induced paw edema and protein extravasation, hind paw in 48° C. water for 5 min.; type: in vivo; conditions: sauvagine 5 μg/kg i.v. 5 min. before
Procedure: Male albino rats weighing 200 to 280 g were anesthetized with sodium pentobarbital, 60 mg/kg i.p., and a right jugular vein cannulated for drug injections. […] The frequency of paw withdrawal from the water was then counted. Leakage of Evans blue dye into the paw skin becomes visible within 2 min. At water temperatures of 58° C., the average dye content was 364±17 μg/paw for rats receiving saline.
(§1) At the end of the exposure period, the animals were sacrificed and the dorsal skin, between the calcaneal process and phalanges, was removed from both paws, weighed, and each placed in 4 ml of formamide for 3 days at room temperature. The extracted Evans blue was quantified colorimetrically at 600 nm with readings from the untreated paw skin used as the blank values.
FIG. 3 illustrates the inhibition by CRF of heat-induced tissue edema, as measured by changes in skin weight. When the paw of an untreated, anesthetized rat is placed in warm water (48° C.) for 5 min., the paw swells and this paw edema can be measured simply by weighing the heated paw skin and comparing its weight to the contralateral, unheated paw skin. If just saline (that is, isotonic salt water) is injected as the control procedure, the percent increase in weight (with respect to unheated paw) is 72%.

rat hind paw [2] = assay: Heat-induced paw edema and protein extravasation (Evans blue), hind paw in 58° C. water for 5 min.; type: in vivo
Procedure: Male albino rats weighing 200 to 280 g were anesthetized with sodium pentobarbital, 60 mg/kg i.p., and a right jugular vein cannulated for drug injections. Human/rat CRF (at various dosages described below) or saline, and Evans blue dye, 50 mg/kg, were injected intravenously 10 and 3 min., respectively, before immersion of the hind paw in 48° C. or 58° C. water for 5 min. The frequency of paw withdrawal from the water was then counted.
as §1
Protein extravasation was measured by injecting a dye into a blood compartment of the animal. The dye binds to blood proteins and when the permeability of the tissue is increased by the heat, the dye leaks into the skin of the paw. The skin of the paw was excised, the dye extracted, and the amount of dye in the skin was measured to provide an index of the skin permeability changes that accompany the heat damage. […] In a manner analogous to that described above for administration of CRF, sauvagine was administered and paws of the anesthetized recipients exposed to water at 58° C. Saline was administered to a control group. The dose of sauvagine was 5 μg/kg given i.v. 5 min. before paw immersion.
In addition, other groups of rats were administered eithe rmorphine sulfate or dexamethasone, and groups of rats were administered saline as controls.

[3] = Mean arterial blood pressure (MAP); type: in vivo, rat; conditions: s.c. 60 min. before electrical stimulation of the saphenous nerve
Procedure: For injections of drugs into the brain, a 21-gauge guide cannula was stereotaxically implanted into the lateral ventricle and a 28-gauge internal cannula coupled to a Hamilton microsyringe was used to deliver a 5-μl volume of drug solution to the brain. The site of injection was verified by injections of 0.5% solutions of methylene blue into the same cannula. In some experiments, blood pressure was measured from a cannulated carotid artery coupled to a Narcobiosystems strain gauge, cardiotachometer and polygraph. Mean arterial blood pressure (MAP) was calculated as 1/3 pulse pressure plus diastolic pressure.
As has been known, CRF and related peptides produce hypotension in anesthetized and unanesthetized animals. […] Neither does the inflammation inhibition of the present invention appear to have any associaton with the hypotensive properties of CRF and its analogs.

[4] = 0.005 mg/kg i.v., 5 min. before exposure
[5] = Table I, sheep CRF at 0.168 mg/kg i.v., sauvagine at 5 μg/kg i.v.
[6] = 0.50 mg/kg i.v., 5 min. before exposure
[7] = 0.94 mg/kg i.v., 20 min. before exposure
[8] = 3.75 mg/kg i.v., 20 min. before exposure
[9] = 3.0 mg/kg i.v., 5 min. before exposure

For sauvagine, the dye increase (rat hind paw [1]) was 13.7 ± 3.5 μg/paw, the “paw skin weight increase” value (rat hind paw [1]) was 4.9%+2.0 and the “% Weight Increase” value (rat hind paw [2]; [4]) was 51 ± 11%. The “Dye μg/paw” value (rat hind paw [2]; [4]) was 86 ± 18 μg/paw, the “reduction of edema relative to saline” value (rat hind paw [2]; [5]) was “about comparable to the sheep CRF at 168 μg/kg i.v. in reducing edema” and the “reduction of protein extravasation relative to saline” value (rat hind paw [2]; [5]) was “even more effective in reducing protein extravasation”.

In the case of `CC[C@H](C)[C@H](NC(=O)[C@@H](NC(=O)[C@H](CCC(=O)O)NC(=O)[C@H](CCSC)NC(=O)[C@H](CC(C)C)NC(=O)[C@H](CCCCN)NC(=O)[C@H](CCCNC(=N)N)NC(=O)[C@H](CC(N)=O)NC(=O)[C@H](CO)NC(=O)[C@H](Cc1c[nH]cn1)NC(=O)[C@H](C)NC(=O)[C@H](CCC(N)=O)NC(=O)[C@H](CCC(N)=O)NC(=O)[C@H](C)NC(=O)[C@H](CC(C)C)NC(=O)[C@H](CCC(N)=O)NC(=O)[C@H](CCC(=O)O)NC(=O)[C@H](C)NC(=O)[C@H](CCCNC(=N)N)NC(=O)[C@H](C)NC(=O)[C@H](CCSC)NC(=O)[C@H](CCC(=O)O)NC(=O)[C@H](CC(C)C)NC(=O)[C@@H](NC(=O)[C@H](CCC(=O)O)NC(=O)[C@H](CCCNC(=N)N)NC(=O)[C@H](CC(C)C)NC(=O)[C@H](CC(C)C)NC(=O)[C@H](Cc1c[nH]cn1)NC(=O)[C@H](Cc1ccccc1)NC(=O)[C@@H](NC(=O)[C@H](CC(C)C)NC(=O)[C@H](CC(=O)O)NC(=O)[C@H](CC(C)C)NC(=O)[C@H](CO)NC(=O)[C@@H](NC(=O)[C@@H]1CCCN1C(=O)[C@@H]1CCCN1C(=O)[C@H](CCC(=O)O)NC(=O)[C@H](CCC(=O)O)NC(=O)[C@@H](N)CO)[C@@H](C)CC)[C@@H](C)O)C(C)C)[C@@H](C)CC)C(N)=O` [rCRF, Corticotropin Releasing Factor], the “effect on mean arterial pressure” value [3] is reported as “did not lower mean arterial pressure”.

In the case of `C[C@@H]1C[C@H]2[C@@H]3CCC4=CC(=O)C=C[C@]4(C)[C@@]3(F)[C@@H](O)C[C@]2(C)[C@@]1(O)C(=O)CO` [dexamethasone, reference compound], the “% Weight Increase” value (rat hind paw [2]; [6]) is reported as 170 ± 14%, the “Dye μg/paw” value (rat hind paw [2]; [6]) is reported as 375 ± 23 μg/paw and the “inhibition of edema (in words)” value (rat hind paw [2]; doses of Table I) is reported as “neither morphine nor dexamethasone inhibits either edema”. For the same compound, the “inhibition of protein extravasation / dye leakage (in words)” value (rat hind paw [2]; doses of Table I) was “neither morphine nor dexamethasone inhibits”.

With dynorphin (1-13) the “reduction of edema (in words)” value (rat hind paw [2]; 940 μg/kg) was “did not”, the “reduction of protein extravasation (in words)” value (rat hind paw [2]; 940 μg/kg) was “did not” and the “% Weight Increase” value (rat hind paw [2]; [7]) was 194 ± 6%. For the same compound, the “Dye μg/paw” value (rat hind paw [2]; [7]) was 411 ± 15 μg/paw, the “reduction of edema (in words)” value (rat hind paw [2]; 3750 μg/kg i.v.) was “did reduce edema” and the “reduction of protein extravasation (in words)” value (rat hind paw [2]; 3750 μg/kg i.v.) was “did reduce edema and protein extravasation”. For the same compound, the “% Weight Increase” value (rat hind paw [2]; [8]) was 87 ± 17% and the “Dye μg/paw” value (rat hind paw [2]; [8]) was 223 ± 37 μg/paw.

With `CN1CC[C@]23c4c5ccc(O)c4O[C@H]2[C@@H](O)C=C[C@H]3[C@H]1C5.O=S(=O)(O)O` [morphine SO4, morphine sulfate, reference compound] the “% Weight Increase” value (rat hind paw [2]; [9]) was 157 ± 12% and the “Dye μg/paw” value (rat hind paw [2]; [9]) was 290 ± 36 μg/paw.

Reference: patent publication US4801612A, “Method of inhibiting inflammatory response” (Regents of the University of California, priority 1986, dated 1989)
